Molecules are shown by their SMILES.

The values that follow come from patent publication US20200315168A1, “Aroma-Loaded Microcapsules with Antibacterial Activity for Eco-friendly Applications” (The American University in Cairo, priority 2017, published 2020).

Assay [1] concerns Escherichia coli (ATCC 10536). Kind of assay: Agar diffusion method (inhibition zone). In kind it is cell-based. More on the design: key to Inhibition zone after 4 days of incubation (symbol): — (*): After 4 days of incubation, the bacteria grown up in the inhibition zone initially formed. The conditions noted are these: E. coli; for Average diameters of inhibition zones, after 24 hours of incubation: 100 μl in 6 mm well, 37° C.; for Inhibition zone after 4 days of incubation (symbol): free oils. The protocol: (§1) This assay was conducted with the limonene and vanillin microcapsules suspensions after applying the washing procedure described previously. Moreover, the free active agents were also tested separately (not incorporated in microcapsules). Staphylococcus aureus (ATCC 19213) and Escherichia coli (ATCC 10536) were used as representatives for Gram positive and Gram negative bacteria, respectively. The bacterial inoculums were prepared, under aseptic conditions, by transferring 4 isolated colonies of each type to individual test tubes containing nutrient broth and then incubated at 37° C. for 24 hours. The inoculums were then diluted by sterilized Ringer solution to a concentration of 0.5 McFarland turbidity (concentration of 1.5-3.0×10^8 CFU/ml). The concentration of the bacteria dilutions, also ascertained through UV spectrophotometry at 625 nm, was 0.0938 for the S. aureus, and 0.0940 for the E. coli. The bacterial solutions were then inoculated on the surface of Mueller Hinton Agar plates, using sterilized cotton swabs, and thereafter allowed to dry. Then, a well of 6 mm diameter was made in the center of each inoculated plate; the plug was removed, and filled with 100 μl of the microcapsules suspension. The limonene oil was diluted in dimethyl sulfoxide (DMSO) (7:3 ratio), and the vanillin dissolved in corn oil (0.03 g vanillin in 1 g of oil). The plates were incubated at 37° C. for 24 h. After this time period, the diameter of the inhibition zone was measured and incubation maintained for more 4 days in order to evaluate further changes in the inhibition zone. The clear zone formed, after incubation, around each hole (inhibition halo), indicates antimicrobial activity and its diameter is a measure of the inhibitory effect. All of the tests were done in duplicates.
For orientation: A growth-free zone around the sample is the usual read-out of agar diffusion tests.

Assay [2] concerns Staphylococcus aureus (ATCC 19213). Kind of assay: Agar diffusion method (inhibition zone). In kind it is cell-based. More on the design: key to Inhibition zone after 4 days of incubation (symbol): — (*): After 4 days of incubation, the bacteria grown up in the inhibition zone initially formed. As to conditions: S. aureus; for Average diameters of inhibition zones, after 24 hours of incubation: 100 μl in 6 mm well, 37° C.; for Inhibition zone after 4 days of incubation (symbol): free oils. How it is done:
as §1

Consider `COc1cc(C=O)ccc1O` [Vanillin in corn oil, Vanillin], for which the “Average diameters of inhibition zones, after 24 hours of incubation” value in assay [1] was 0.95 ± 0.32 cm; in assay [2], 1.00 ± 0.20 cm. For the same compound, the “Inhibition zone after 4 days of incubation (symbol)” value in assay [1] and in assay [2] was “— (*)” each time.
Turning to `C=C(C)[C@H]1CC=C(C)CC1` [Limonene in DMSO, Limonene], the “Average diameters of inhibition zones, after 24 hours of incubation” value is on record as 3.30 ± 0.31 cm in assay [1] and 3.30 ± 0.18 cm in assay [2]. Also, the “Inhibition zone after 4 days of incubation (symbol)” value in assay [1] and in assay [2] was “— (*)” each time.
